Test results reported in patent US9511022B2, “Suspension and cake composition containing carbostyryl derivative and silicone oil and/or silicone oil derivative” (Otsuka Pharmaceutical Co., Ltd., priority 2010, dated 2016).

Experiments:
[1] = Mean particle size of Compound (II)/silicone oil suspension by laser diffraction, with and without sonication; format: physicochemical; settings: 20 weight % Compound (II) suspension after wet pulverization, before silicone oil addition
Procedure: Suspensions containing Compound (II) and silicone oil in the contents presented in Table 4 were prepared according to the following method. A 0.1% or 1% silicone oil emulsion prepared by diluting Dow Corning® 365, 35% Dimethicone NF Emulsion (produced by Dow Corning Corporation) in purified water was used as the silicone oil. A sodium carboxymethylcellulose/mannitol/sodium dihydrogenphosphate solution was used as a dispersion medium. The solids content of Compound (II) was adjusted to 10 to 20 weight %. No foaming occurred in any of the suspensions.
An aqueous suspension (200 mg Compound (II)/1.1 to 2 mL) containing Compound (II) and silicone oil was prepared as follows. Note that the Compound (II) suspension was prepared in the same manner as in Example 1 except that the pulverizing time using a high-pressure homogenizer was shortened.
A Compound (II) bulk powder was suspended in a dispersion medium at 20 weight %. […]
(§1) The mean particle size of the suspension prepared as described above was measured using a SALD-3000J or SALD-3100 Laser Diffraction Particle Size Analyzer (produced by Shimadzu Corporation). […]
(§2) Separately, the suspension was sonicated for 1 min with an ultrasonic wave generator attached to the particle size analyzer, and the mean particle size of the treated suspension was measured as described above.

[2] = Mean particle size of aripiprazole/silicone oil suspension by laser diffraction, with and without sonication; format: physicochemical; settings: 20 weight % aripiprazole suspension after wet pulverization, before silicone oil addition
Procedure: Suspensions containing aripiprazole and silicone oil in the contents presented in Table 1 were prepared according to the following method. A 0.1% or 1% silicone oil emulsion prepared by diluting Dow Corning® 365, 35% Dimethicone NF Emulsion (produced by Dow Corning Corporation) in purified water was used as the silicone oil. A sodium carboxymethylcellulose/mannitol/sodium dihydrogenphosphate solution was used as a dispersion medium. The solids content of the aripiprazole was adjusted to about 10 to 20 weight %. No foaming occurred in any of the suspensions.
An aqueous suspension (200 mg aripiprazole/1.1 to 2 mL) containing aripiprazole (IM Depot) and silicone oil was prepared as follows.
Note that the aripiprazole suspension was prepared according to a wet pulverization method that uses a high-pressure homogenizer (see Japanese Patent Application No. 2007-200088 filed by Otsuka Pharmaceutical Co., Ltd.).
An aripiprazole hydrate bulk powder was suspended in a dispersion medium at 20 weight %. […]
as §1, §2

SMILES | Mean primary particle size of the resulting suspension [1] | Mean primary particle size of the resulting suspension [2]
O=c1ccc2ccc(OCCCCN3CCN(c4cccc5sccc45)CC3)cc2[nH]1 [Compound (II), 7-[4-(4-benzo[b]thiophen-4-yl-piperazin-1-yl)butoxy]-1H-quinolin-2-one] | 5.3 μm | –
O=C1CCc2ccc(OCCCCN3CCN(c4cccc(Cl)c4Cl)CC3)cc2N1 [aripiprazole, Aripiprazole] | – | 2.0 μm
